ChEMBL document CHEMBL2439971, “Design, synthesis and antiproliferative evaluation of fluorenone analogs with DNA topoisomerase I inhibitory properties” (Bioorg Med Chem, 2013)
Active and inactive are the calls of the source. No cut-off for these calls is given here.

Legend:
PC-3 [1] = assay: Cytotoxicity against human PC3 cells at 10 uM after 48 hrs by sulforhodamine B assay relative to control; assay type: functional
SK-MEL-2 = assay: Cytotoxicity against human SK-MEL-2 cells at 10 uM after 48 hrs by sulforhodamine B assay relative to control; assay type: functional
M14 = assay: Cytotoxicity against human M14 cells at 10 uM after 48 hrs by sulforhodamine B assay relative to control; assay type: functional
DU-145 = assay: Cytotoxicity against human DU145 cells at 10 uM after 48 hrs by sulforhodamine B assay relative to control; assay type: functional
OVCAR-5 = assay: Cytotoxicity against human OVCAR5 cells at 10 uM after 48 hrs by sulforhodamine B assay relative to control; assay type: functional
SW-620 = assay: Cytotoxicity against human SW620 cells at 10 uM after 48 hrs by sulforhodamine B assay relative to control; assay type: functional
ACHN = assay: Cytotoxicity against human ACHN cells at 10 uM after 48 hrs by sulforhodamine B assay relative to control; assay type: functional
Homo sapiens = species: Homo sapiens; assay: Inhibition of telomerase (unknown origin) at 10 uM TRAP assay
NCI-H522 = assay: Cytotoxicity against human NCI-H522 cells at 10 uM after 48 hrs by sulforhodamine B assay relative to control; assay type: functional
PC-3 [2] = assay: Cytotoxicity against human PC3 cells after 48 hrs by sulforhodamine B assay; assay type: functional, cell-based; conditions: PC-3, 48 h
NCI-H322M = assay: Cytotoxicity against human NCI-H322M cells at 10 uM after 48 hrs by sulforhodamine B assay relative to control; assay type: functional
SF-539 = assay: Cytotoxicity against human SF539 cells at 10 uM after 48 hrs by sulforhodamine B assay relative to control; assay type: functional
HOP-92 = assay: Cytotoxicity against human HOP92 cells at 10 uM after 48 hrs by sulforhodamine B assay relative to control; assay type: functional
MDA-MB-231 = assay: Cytotoxicity against human MDA-MB-231 cells at 10 uM after 48 hrs by sulforhodamine B assay relative to control; assay type: functional
COLO 205 = assay: Cytotoxicity against human COLO205 cells at 10 uM after 48 hrs by sulforhodamine B assay relative to control; assay type: functional
NCI-H226 = assay: Cytotoxicity against human NCI-H226 cells at 10 uM after 48 hrs by sulforhodamine B assay relative to control; assay type: functional
SF-268 = assay: Cytotoxicity against human SF268 cells at 10 uM after 48 hrs by sulforhodamine B assay relative to control; assay type: functional
HL-60(TB) = assay: Cytotoxicity against human HL-60(TB) cells at 10 uM after 48 hrs by sulforhodamine B assay relative to control; assay type: functional
UACC-257 = assay: Cytotoxicity against human UACC257 cells at 10 uM after 48 hrs by sulforhodamine B assay relative to control; assay type: functional
786-0 = assay: Cytotoxicity against human 786-0 cells at 10 uM after 48 hrs by sulforhodamine B assay relative to control; assay type: functional
SK-MEL-28 = assay: Cytotoxicity against human SK-MEL-28 cells at 10 uM after 48 hrs by sulforhodamine B assay relative to control; assay type: functional
BT-549 = assay: Cytotoxicity against human BT549 cells at 10 uM after 48 hrs by sulforhodamine B assay relative to control; assay type: functional
SN12C = assay: Cytotoxicity against human SN12C cells at 10 uM after 48 hrs by sulforhodamine B assay relative to control; assay type: functional
A549 = assay: Cytotoxicity against human A549 cells at 10 uM after 48 hrs by sulforhodamine B assay relative to control; assay type: functional
HCC 2998 = assay: Cytotoxicity against human HCC2998 cells at 10 uM after 48 hrs by sulforhodamine B assay relative to control; assay type: functional
[3] = Cytotoxicity against human Hs 578T cells at 10 uM after 48 hrs by sulforhodamine B assay relative to control; assay type: functional
MDA-MB-468 = assay: Cytotoxicity against human MDA-MB-468 cells at 10 uM after 48 hrs by sulforhodamine B assay relative to control; assay type: functional
HCT-15 = assay: Cytotoxicity against human HCT15 cells at 10 uM after 48 hrs by sulforhodamine B assay relative to control; assay type: functional
SR = assay: Cytotoxicity against human SR cells at 10 uM after 48 hrs by sulforhodamine B assay relative to control; assay type: functional
SNB-19 = assay: Cytotoxicity against human SNB19 cells at 10 uM after 48 hrs by sulforhodamine B assay relative to control; assay type: functional
NCI-H23 = assay: Cytotoxicity against human NCI-H23 cells at 10 uM after 48 hrs by sulforhodamine B assay relative to control; assay type: functional
NCI/ADR-RES = assay: Cytotoxicity against human NCI/ADR-RES cells at 10 uM after 48 hrs by sulforhodamine B assay relative to control; assay type: functional
UACC-62 = assay: Cytotoxicity against human UACC62 cells at 10 uM after 48 hrs by sulforhodamine B assay relative to control; assay type: functional
OVCAR-3 = assay: Cytotoxicity against human OVCAR3 cells at 10 uM after 48 hrs by sulforhodamine B assay relative to control; assay type: functional
RXF 393 = assay: Cytotoxicity against human RXF393 cells at 10 uM after 48 hrs by sulforhodamine B assay relative to control; assay type: functional
T47D = assay: Cytotoxicity against human T47D cells at 10 uM after 48 hrs by sulforhodamine B assay relative to control; assay type: functional
MDA-MB-435 = assay: Cytotoxicity against human MDA-MB-435 cells at 10 uM after 48 hrs by sulforhodamine B assay relative to control; assay type: functional
[4] = Cytotoxicity against human EKVX cells at 10 uM after 48 hrs by sulforhodamine B assay relative to control; assay type: functional
MCF7 = assay: Cytotoxicity against human MCF7 cells at 10 uM after 48 hrs by sulforhodamine B assay relative to control; assay type: functional
CCRF-CEM = assay: Cytotoxicity against human CCRF-CEM cells at 10 uM after 48 hrs by sulforhodamine B assay relative to control; assay type: functional
NCI-H460 = assay: Cytotoxicity against human NCI-H460 cells at 10 uM after 48 hrs by sulforhodamine B assay relative to control; assay type: functional
SNB-75 = assay: Cytotoxicity against human SNB75 cells at 10 uM after 48 hrs by sulforhodamine B assay relative to control; assay type: functional
K562 = assay: Cytotoxicity against human K562 cells at 10 uM after 48 hrs by sulforhodamine B assay relative to control; assay type: functional
HCT-116 = assay: Cytotoxicity against human HCT116 cells at 10 uM after 48 hrs by sulforhodamine B assay relative to control; assay type: functional
HT-29 = assay: Cytotoxicity against human HT-29 cells at 10 uM after 48 hrs by sulforhodamine B assay relative to control; assay type: functional
MOLT-4 = assay: Cytotoxicity against human MOLT4 cells at 10 uM after 48 hrs by sulforhodamine B assay relative to control; assay type: functional
HOP-62 = assay: Cytotoxicity against human HOP62 cells at 10 uM after 48 hrs by sulforhodamine B assay relative to control; assay type: functional
KM12 = assay: Cytotoxicity against human KM12 cells at 10 uM after 48 hrs by sulforhodamine B assay relative to control; assay type: functional
OVCAR-4 = assay: Cytotoxicity against human OVCAR4 cells at 10 uM after 48 hrs by sulforhodamine B assay relative to control; assay type: functional
RPMI-8226 = assay: Cytotoxicity against human RPMI8226 cells at 10 uM after 48 hrs by sulforhodamine B assay relative to control; assay type: functional
TK-10 = assay: Cytotoxicity against human TK10 cells at 10 uM after 48 hrs by sulforhodamine B assay relative to control; assay type: functional
CAKI-1 = assay: Cytotoxicity against human CAKI-1 cells at 10 uM after 48 hrs by sulforhodamine B assay relative to control; assay type: functional
OVCAR-8 = assay: Cytotoxicity against human OVCAR8 cells at 10 uM after 48 hrs by sulforhodamine B assay relative to control; assay type: functional
IGROV-1 = assay: Cytotoxicity against human IGROV1 cells at 10 uM after 48 hrs by sulforhodamine B assay relative to control; assay type: functional
U-251 = assay: Cytotoxicity against human U251 cells at 10 uM after 48 hrs by sulforhodamine B assay relative to control; assay type: functional
LOX IMVI = assay: Cytotoxicity against human LOXIMVI cells at 10 uM after 48 hrs by sulforhodamine B assay relative to control; assay type: functional
Malme-3M = assay: Cytotoxicity against human MALME-3M cells at 10 uM after 48 hrs by sulforhodamine B assay relative to control; assay type: functional
UO-31 = assay: Cytotoxicity against human UO31 cells at 10 uM after 48 hrs by sulforhodamine B assay relative to control; assay type: functional
SF-295 = assay: Cytotoxicity against human SF295 cells at 10 uM after 48 hrs by sulforhodamine B assay relative to control; assay type: functional
SK-MEL-5 = assay: Cytotoxicity against human SK-MEL-5 cells at 10 uM after 48 hrs by sulforhodamine B assay relative to control; assay type: functional
[5] = Cytotoxicity against human NCI60 cells; assay type: functional

## CN1CCN(CC(=O)Nc2ccc3c(c2)C(=O)c2cc(NC(=O)CN4CCN(C)CC4)ccc2-3)CC1
PC-3 [1]
  Activity: 101.32%
SK-MEL-2
  Activity: 119.93%
M14
  Activity: 106.48%
DU-145
  Activity: 117.23%
OVCAR-5
  Activity: 119.06%
SW-620
  Activity: 103.43%
ACHN
  Activity: 111.9%
Homo sapiens
  inhibition: inactive
NCI-H522
  Activity: 90.02%
PC-3 [2]
  IC50: > 30 µM
NCI-H322M
  Activity: 97.25%
SF-539
  Activity: 107.96%
HOP-92
  Activity: 93.88%
MDA-MB-231
  Activity: 108.13%
COLO 205
  Activity: 102.69%
NCI-H226
  Activity: 106.03%
SF-268
  Activity: 115.79%
HL-60(TB)
  Activity: 100.43%
UACC-257
  Activity: 133.36%
786-0
  Activity: 102.26%
SK-MEL-28
  Activity: 97.75%
BT-549
  Activity: 110.6%
SN12C
  Activity: 100.48%
A549
  Activity: 106.99%
HCC 2998
  Activity: 98.62%
[3]
  Activity: 107.34%
MDA-MB-468
  Activity: 98.39%
HCT-15
  Activity: 106.48%
SR
  Activity: 105.62%
SNB-19
  Activity: 101.36%
NCI-H23
  Activity: 99.17%
NCI/ADR-RES
  Activity: 102.76%
UACC-62
  Activity: 110.11%
OVCAR-3
  Activity: 125.59%
RXF 393
  Activity: 110.09%
T47D
  Activity: 103.63%
MDA-MB-435
  Activity: 95.92%
[4]
  Activity: 100.31%
MCF7
  Activity: 95.17%
CCRF-CEM
  Activity: 98.38%
NCI-H460
  Activity: 108.46%
SNB-75
  Activity: 87.76%
K562
  Activity: 104.58%
HCT-116
  Activity: 94.2%
HT-29
  Activity: 95.51%
MOLT-4
  Activity: 96.58%
HOP-62
  Activity: 111.05%
KM12
  Activity: 108.52%
OVCAR-4
  Activity: 111.66%
RPMI-8226
  Activity: 106.31%
TK-10
  Activity: 106.54%
CAKI-1
  Activity: 92.75%
OVCAR-8
  Activity: 111.5%
IGROV-1
  Activity: 110.15%
U-251
  Activity: 97.19%
LOX IMVI
  Activity: 96.76%
Malme-3M
  Activity: 115.66%
UO-31
  Activity: 89.84%
SF-295
  Activity: 93.37%
SK-MEL-5
  Activity: 103.25%

## O=C(CCN1CCCC1)Nc1ccc2c(c1)C(=O)c1cc(NC(=O)CCN3CCCC3)ccc1C2=O
[5]
  GI50: 3.89 µM
